# “Also recorded” adds a separate entry of the source.
# How the values were obtained:
# [1] = tested on: hippocampal neurons; format: binding, rat
# [2] = target: PrP^C (Mus musculus, UniProt P04925); format: binding
# [3] = target: T1, Sprn (Mus musculus, UniProt Q8BWU1); format: binding
# T1 sequence (Q8BWU1 whole entry, looked up): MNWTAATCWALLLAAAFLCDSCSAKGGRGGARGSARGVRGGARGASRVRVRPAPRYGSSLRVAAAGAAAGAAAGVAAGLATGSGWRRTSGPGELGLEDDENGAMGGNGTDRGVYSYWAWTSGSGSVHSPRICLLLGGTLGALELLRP
# [4] = target: Doppel (Homo sapiens, UniProt Q9UKY0); format: binding
# [5] = tested on: receptor for advanced glycation endproducts (RAGE); format: binding
# [6] = tested on: hippocampal cultures from Prnp −/− mice; format: binding, mouse
# [7] = target: PrP Δ32–121 (Mus musculus, UniProt P04925, DEL32-121); format: binding
# [8] = target: PrP Δ32–106 (Mus musculus, UniProt P04925, DEL32-106); format: binding
# [9] = tested on: PrP Δ95–105; format: binding, mouse
# [10] = tested on: PrP Δ70–105; format: binding, mouse
# [11] = tested on: Schaffer collateral LTP, wild-type hippocampal slices; parameters: species or system mouse
# [12] = tested on: Schaffer collateral LTP, Prnp −/− hippocampal slices; parameters: species or system mouse
# [13] = tested on: NR-2B containing receptors; format: cell-based
# [14] = tested on: NR-2D containing receptors; format: cell-based
# [15] = tested on: hippocampal long-term potentiation; conditions: cited from earlier work
# [16] = target: APLP2 (Homo sapiens, UniProt Q06481); format: binding
# APLP2, sequence (Q06481 32-763): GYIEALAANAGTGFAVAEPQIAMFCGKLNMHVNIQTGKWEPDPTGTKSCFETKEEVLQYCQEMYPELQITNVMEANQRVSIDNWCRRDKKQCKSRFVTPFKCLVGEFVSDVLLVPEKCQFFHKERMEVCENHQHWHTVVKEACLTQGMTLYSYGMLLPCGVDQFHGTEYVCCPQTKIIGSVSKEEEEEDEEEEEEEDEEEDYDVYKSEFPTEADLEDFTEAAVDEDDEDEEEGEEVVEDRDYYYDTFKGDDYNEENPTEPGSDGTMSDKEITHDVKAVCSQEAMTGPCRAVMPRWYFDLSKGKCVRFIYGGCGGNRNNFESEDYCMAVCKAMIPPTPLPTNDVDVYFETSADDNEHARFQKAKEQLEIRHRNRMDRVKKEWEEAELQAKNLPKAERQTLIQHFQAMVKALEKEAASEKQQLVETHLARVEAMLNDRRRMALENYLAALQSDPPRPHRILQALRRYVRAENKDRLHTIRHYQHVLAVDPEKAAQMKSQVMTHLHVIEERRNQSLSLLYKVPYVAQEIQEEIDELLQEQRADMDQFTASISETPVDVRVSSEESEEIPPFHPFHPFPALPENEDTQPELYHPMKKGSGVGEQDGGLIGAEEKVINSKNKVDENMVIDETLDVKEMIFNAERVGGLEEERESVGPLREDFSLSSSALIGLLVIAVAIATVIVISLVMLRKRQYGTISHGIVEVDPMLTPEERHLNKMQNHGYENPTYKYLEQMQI
# [17] = target: APP (Homo sapiens, UniProt P05067); format: binding
# [18] = tested on: PrP-Fc; format: binding, mouse
# [19] = tested on: control Fc protein; format: binding, human
# [20] = tested on: PrP Δ52–91; format: binding, mouse
# [21] = format: physicochemical; conditions: pH 7
substance,measurement,setting,value
Aβ42-oligomer,binding to hippocampal neurons,[1],saturable; also recorded: binds to 21 DIV hippocampal neurons
same,developmental dependence of neuronal binding,[1],minimal binding to neurons immediately after dissociation from E18 hippocampus; also recorded: Not until 15–20 days have elapsed in vitro does Aβ42-oligomer binding to neurons become robust
same,localization of binding on neurons,[1],most concentrated at post-synaptic densities; also recorded: localization of PrP immunoreactivity and Aβ42-oligomer binding overlap extensively
same,Kd,[1]; read-out: apparent KD,50 to 100 nM
same,effect of copper on binding to PrP,[2],does not alter Aβ42-oligomer binding
same,Kd,"[2]; read-out: KD, PrP",92 nM
same,affinity for Sprn (in words),[3],neither exhibited affinity for oligomeric Aβ42
same,affinity for Doppel (in words),[4],neither exhibited affinity for oligomeric Aβ42
same,binding to RAGE (in words),[5],"less Aβ42-oligomer binding signal than did PrP, APLP1 or TMEM30B"
same,reduction of punctate binding in Prnp −/− cultures,[6],50%
same,binding to PrP Δ32–121 (in words),[7],abrogates binding
same,binding to PrP Δ32–106 (in words),[8],no Aβ42-oligomer affinity
same,"reduction of binding, PrP Δ95–105",[9],80%
same,binding to PrP Δ70–105 (in words),[10],no further reduction
same,"effect on LTP, wild-type slices",[11],reduce LTP in hippocampal slices from wild-type mice
same,"effect on LTP, Prnp −/− slices",[12],no significant inhibition of LTP
same,effect on NR2B-containing NMDA receptor currents,[13],insensitive to Aβ42-oligomers
same,effect on NR2D-containing NMDA receptor currents,[14],insensitive to Aβ42-oligomers
same,effect on Schaffer collateral LTP,[15],suppress long-term potentiation (LTP)
freshly prepared biotin-Aβ42: freshly prepared Aβ42 with biotin attached by 6-carbon linker to amino terminus,binding to hippocampal neurons,[1],does not
Aβ42,binding to APLP2 (in words),[16],neither of these proteins binds Aβ42
same,binding to APP (in words),[17],neither of these proteins binds Aβ42
same,retention by PrP-Fc (in words),[18],retained Aβ42 peptide through a direct physical interaction
same,retention by control Fc,[19],retained neither freshly prepared nor oligomeric preparations of Aβ42
same,binding to PrP Δ52–91 (in words),[20],exhibits significant Aβ42 binding
"biotin-Aβ42-oligomer: Aβ42 with biotin moiety attached by 6-carbon linker to amino terminus, oligomerized",particle diameter,[21],5–6 nm
same,localization of binding on neurons,[1],very low levels in astroglial cells

# — paper PMC2748841 (Nature, 2009)
